Test: solvent given as SMILES

## F[B-]1(F)n2c(c3cc4ccccc4cc3c2-c2ccccc2)C=C2c3cc4ccccc4cc3C(c3ccccc3)=[N+]21
In C1CCOC1
  absorption maximum: 761 nm
In CN(C)C=O
  absorption maximum: 764 nm
In ClCCl
  absorption maximum: 762 nm
In c1ccccc1
  absorption maximum: 765 nm

## CN1C(=O)/C(=C/c2ccncc2)N=C1/C=C/c1ccccc1
In C1COCCO1
  absorption maximum: 411 nm
In CC#N
  absorption maximum: 408 nm
In CCO
  absorption maximum: 411 nm
In CCOC(C)=O
  absorption maximum: 408 nm
In O
  absorption maximum: 408 nm

## CCCCCCN1C(=O)c2cccc3c(-c4ccc(OC)s4)ccc(c23)C1=O
In ClC(Cl)Cl
  absorption maximum: 407 nm

## C1=C(c2ccc(-c3cccs3)s2)CCCC1
In C1CCOC1
  absorption maximum: 341 nm
In CC#N
  absorption maximum: 342 nm
In CCCCCC
  absorption maximum: 341 nm
In CCO
  absorption maximum: 344 nm
In OCCOCCO
  absorption maximum: 345 nm
In c1ccncc1
  absorption maximum: 345 nm

## Cc1cc(-c2nnc(-c3c(C(C)C)cc(C(C)C)cc3C(C)C)o2)ccc1-n1c2ccccc2c2ccccc21
In Cc1ccccc1
  absorption maximum: 339 nm

## N#Cc1nn(-c2ccccc2)nc1N1CCCC1
In CC#N
  absorption maximum: 340 nm

## c1ccc(N(c2ccccc2)c2ccc(-c3cccc4nc5ccccc5cc34)cc2)cc1
In C1CCOC1
  absorption maximum: 391 nm
In CC#N
  absorption maximum: 390 nm
In CC(C)OC(C)C
  absorption maximum: 389 nm
In CCCCCC
  absorption maximum: 386 nm
In CCCCOCCCC
  absorption maximum: 390 nm
In CCN(CC)CC
  absorption maximum: 389 nm
In CCOC(C)=O
  absorption maximum: 390 nm
In CCOCC
  absorption maximum: 386 nm
In CN(C)C=O
  absorption maximum: 390 nm
In ClCCl
  absorption maximum: 396 nm

## CC(C)c1ccc(-c2nc(-c3ccccc3)c3ccccn23)cc1
In CC#N
  absorption maximum: 380 nm

## Cc1ccc(-n2c(-c3cccc4cc[nH]c34)nc3c4ccccc4c4ccccc4c32)cc1
In Cc1ccccc1
  absorption maximum: 354 nm

## CCN(CC)c1ccc2cc(/C=C(\C#N)c3nc4ccccc4s3)c(=O)oc2c1
In C1COCCO1
  absorption maximum: 498 nm
In CC#N
  absorption maximum: 506 nm
In CCO
  absorption maximum: 511 nm
In CCOC(C)=O
  absorption maximum: 504 nm
In CN(C)C=O
  absorption maximum: 528 nm
In CO
  absorption maximum: 512 nm
In CS(C)=O
  absorption maximum: 525 nm
In Cc1ccccc1
  absorption maximum: 501 nm
In ClCCl
  absorption maximum: 509 nm

## Cc1c(C(=O)c2ccccc2)c2ccc3cccc4c5cccc6ccc1c(c65)c2c34
In ClCCl
  absorption maximum: 391 nm

## Cc1ccc(/C=C(\c2ccccc2)c2nc3ccccc3o2)cc1
In C1CCCCC1
  absorption maximum: 325 nm
In CO
  absorption maximum: 330 nm

## CC1=CC2=Nc3nc(C)[n+](C)cc3CN2C=C1
In CC#N
  absorption maximum: 403 nm
In CCO
  absorption maximum: 398 nm
In O
  absorption maximum: 392 nm

## CCCC1(CCC)c2cc(-c3ccco3)ccc2-c2ccc(-c3ccco3)cc21
In C1CCCCC1
  absorption maximum: 364 nm

## CCOC(=O)c1sc2nc(-c3ccccc3)c(C)c(C#N)c2c1N
In C1COCCO1
  absorption maximum: 420 nm
In CC#N
  absorption maximum: 412 nm
In CCO
  absorption maximum: 423 nm
In CCOC(C)=O
  absorption maximum: 419 nm
In ClC(Cl)Cl
  absorption maximum: 416 nm
In c1ccccc1
  absorption maximum: 418 nm

## O=C1OC(c2ccccc2)=C/C1=C\c1ccccc1
In C1COCCO1
  absorption maximum: 442 nm

## CN(C)c1cc(-c2ccc(C#Cc3cc[n+](C)cc3)cc2)cc2ccccc12
In ClCCl
  absorption maximum: 366 nm

## CCc1c(C(=O)OC)c(C(=O)OC)c2ccc(-c3ccccc3)nn12
In C1CCCCC1
  absorption maximum: 399.4 nm

## CCC1(CC)c2ccccc2-c2c1c1c(c3c2C(CC)(CC)c2cc(-c4cccs4)ccc2-3)C(CC)(CC)c2cc(N(c3ccccc3)c3ccccc3)ccc2-1
In C1CCOC1
  absorption maximum: 355 nm

## O=P1(c2ccccc2)C(c2ccc(C(F)(F)F)cc2)=Cc2cc3ccccc3cc21 (configuration not stated)
In ClCCl
  absorption maximum: 387 nm

## CCCCN(CCCC)c1ccc(C#Cc2cc(C#Cc3ccc(N(CCCC)CCCC)cc3)c(C#Cc3ccc([N+](=O)[O-])cc3)cc2C#Cc2ccc([N+](=O)[O-])cc2)cc1
In ClCCl
  absorption maximum: 426 nm

## CCCCN(CCCC)c1ccc(C#Cc2cc(C#Cc3ccc([N+](=O)[O-])cc3)c(C#Cc3ccc(N(CCCC)CCCC)cc3)cc2C#Cc2ccc([N+](=O)[O-])cc2)cc1
In ClCCl
  absorption maximum: 448 nm

## c1cc(N2CCCC2)ccn1
In CC1CCCCC1
  absorption maximum: 293 nm
In CC#N
  absorption maximum: 285 nm
In CCCCCCC
  absorption maximum: 293 nm
In CCO
  absorption maximum: 286 nm
In CN(C)C=O
  absorption maximum: 284 nm
In ClC(Cl)Cl
  absorption maximum: 285 nm
In O
  absorption maximum: 280 nm

## Cc1ccc2c(c1)c(=O)c1ccccc1n2CCCCCC(=O)O
In O
  absorption maximum: 419 nm

— the Deep4Chem optical property database
